Article PMC8249783, “A novel multikinase inhibitor SKLB‐YTH‐60 ameliorates inflammation and fibrosis in bleomycin‐induced lung fibrosis mouse models” (Cell Proliferation, 2021)
Read-outs that look alike come from different tables or passages of the source.

Experiment: Pharmacokinetics study after IV and PO administration to SD rats
Type: in vivo
Settings: rat, plasma
Experimental: The appropriate amount of YTH‐60 was accurately weighed, added to the final volume of 5% DMSO, 40% PEG400 and 55% normal saline, and vortexed or ultrasonicated to fully mix. Then, 0.4 and 2 mg·mL^−1 of clarified dosing solution was used for intravenous administration and oral gavage administration. SD rats were transferred from the Experimental Animal Library (999 M‐017), Shanghai Xipuer‐Beikai Experimental Animal Co. Ltd. After oral, intravenous or intragastric administration, blood was collected by jugular vein or other suitable methods. Approximately 0.20 mL of each sample was collected, in the presence of heparin sodium as an anticoagulant. After the blood samples were collected, they were placed on ice and centrifuged to separate plasma within 2 hours (centrifugation conditions: centrifugal force 6800 g, 6 minutes, 2‐8°C). The collected plasma samples were stored at −80°C before analysis by LC‐MS/MS‐18. After analysis, the remaining plasma samples were stored at −80°C for a period of 1 month.

[1] = Sprague-Dawley, iv, 2 mg/kg, IV 2 mg/kg, individual animals 101, 102, 103, read-out: Individual plasma concentration
[2] = Sprague-Dawley, iv, 2 mg/kg, IV 2 mg/kg, read-out: Mean plasma concentration
[3] = Sprague-Dawley, po, 20 mg/kg, PO 20 mg/kg, individual animals 201, 202, 203, read-out: Individual plasma concentration
[4] = Sprague-Dawley, po, 20 mg/kg, PO 20 mg/kg, read-out: Mean plasma concentration

concentration at 6 h (SD, po, 20 mg/kg, PO 20 mg/kg, 6 h, read-out: Mean plasma concentration): 94.2 ng/mL
concentration at 8 h (SD, po, 20 mg/kg, PO 20 mg/kg, individual animals 201, 202, 203, read-out: Individual plasma concentration): 67.4 ng/mL
concentration at 8 h (SD, po, 20 mg/kg, PO 20 mg/kg, read-out: Mean plasma concentration): 81.5 ng/mL
AUC (SD, po, 20 mg/kg, SD rats, 20 mg·kg^−1 oral administration, read-out: mean AUC(0‐t)): 1380 ng·h/mL
AUC (SD, po, 20 mg/kg, SD rats, p.o. 20 mg·kg^−1, read-out: AUC0‐t): 1380 ± 152 ng·h/mL
AUC (SD, po, 20 mg/kg, SD rats, p.o. 20 mg·kg^−1, read-out: AUC0‐∞): 1610 ± 177 ng·h/mL
MRT (SD, po, 20 mg/kg, SD rats, p.o. 20 mg·kg^−1, read-out: MRT0‐t): 8.38 ± 0.31 h
MRT (SD, po, 20 mg/kg, SD rats, p.o. 20 mg·kg^−1, read-out: MRT0‐∞): 12.4 ± 2.67 h
concentration at 0.083 h [1]: 355 ng/mL
concentration at 0.083 h [2]: 380 ng/mL
concentration at 0.25 h [1]: 187 ng/mL
concentration at 0.25 h [2]: 187 ng/mL
concentration at 0.5 h [1]: 153 ng/mL
concentration at 0.5 h [2]: 149 ng/mL
concentration at 1 h [1]: 112 ng/mL
concentration at 1 h [2]: 117 ng/mL
concentration at 8 h [2]: 25 ng/mL
concentration at 24 h [1]: 2.27 ng/mL
concentration at 24 h [2]: 2.82 ng/mL
concentration at 0.25 h [3]: 33.6 ng/mL
concentration at 0.25 h [4]: 31.6 ng/mL
concentration at 0.5 h [3]: 40.6 ng/mL
concentration at 0.5 h [4]: 33.8 ng/mL
concentration at 1 h [3]: 35.9 ng/mL
concentration at 1 h [4]: 32.1 ng/mL
concentration at 24 h [3]: 24.5 ng/mL
concentration at 24 h [4]: 19.1 ng/mL
Cmax (iv, SD rats, i.v. 2 mg·kg^−1): 380 ± 37 ng/mL
Tmax (iv, SD rats, i.v. 2 mg·kg^−1): 0.08 h
half-life (iv, SD rats, i.v. 2 mg·kg^−1): 4.92 ± 0.17 h
clearance (iv, SD rats, i.v. 2 mg·kg^−1, unit inferred): 42.5 mL/min/kg
Cmax (po, SD rats, p.o. 20 mg·kg^−1): 95.8 ± 16.6 ng/mL
Tmax (po, SD rats, p.o. 20 mg·kg^−1): 4.67 ± 2.31 h
half-life (po, SD rats, p.o. 20 mg·kg^−1): 8.03 ± 2.16 h
bioavailability (po, SD rats, p.o. 20 mg·kg^−1, read-out: F (oral bioavailability)): 17.9 ± 1.97%
SMILES: COc1cc(OC)c(Cl)c(-c2ccc3c(/C=C/c4ccc(N(C)C(=O)CN5CCN(C)CC5)cc4)n[nH]c3c2)c1Cl [YTH‐60, (E)‐N‐(4‐(2‐(6‐(2,6‐dichloro‐3,5‐dimethoxyphenyl)‐1H‐indazol‐3‐yl)vinyl)phenyl)‐N‐methyl‐2‐(4‐methylpiperazin‐1‐yl)acetamide]
